Test in all cases: tryptophan fluorescence quenching, quadratic fit
Common to all, as to details: read-out: Association Constant / Quadratic Model Ka (×10^5 M^-1) (converted)

For assay [1], the target named is T1, BSA (bovine serum albumin) (Bos taurus, UniProt P02769).
T1 construct: gene ALB; not biotinylated in the Ka titrations
Type of assay: binding. The source says:
tryptophan fluorescence quenching, quadratic fit on BSA (bovine serum albumin)

In assay [2] the target is T2, CRABP2 (cellular retinoic acid-binding protein 2) (Mus musculus, UniProt P22935).
T2 construct: recombinant in E. coli BL21(DE3), GST tag removed by PreScission Protease
T2 sequence (P22935 1-138): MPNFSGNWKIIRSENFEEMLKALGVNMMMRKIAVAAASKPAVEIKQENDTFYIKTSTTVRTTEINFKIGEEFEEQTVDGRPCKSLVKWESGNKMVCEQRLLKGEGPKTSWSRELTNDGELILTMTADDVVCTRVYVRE
The source says: tryptophan fluorescence quenching, quadratic fit on CRABP2 (cellular retinoic acid-binding protein 2)

Assay [3] deals with T3, RBP1 (cellular retinol-binding protein 1) (Mus musculus, UniProt Q00915).
T3 construct: recombinant in E. coli BL21, GST tag cleaved with ProTEV protease
T3 sequence (Q00915 1-135): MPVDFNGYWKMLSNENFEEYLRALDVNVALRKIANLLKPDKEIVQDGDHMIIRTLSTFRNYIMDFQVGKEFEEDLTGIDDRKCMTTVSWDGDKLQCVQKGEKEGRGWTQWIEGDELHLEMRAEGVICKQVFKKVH
From the text: tryptophan fluorescence quenching, quadratic fit on RBP1 (cellular retinol-binding protein 1)

T1 sequence (P02769 25-607): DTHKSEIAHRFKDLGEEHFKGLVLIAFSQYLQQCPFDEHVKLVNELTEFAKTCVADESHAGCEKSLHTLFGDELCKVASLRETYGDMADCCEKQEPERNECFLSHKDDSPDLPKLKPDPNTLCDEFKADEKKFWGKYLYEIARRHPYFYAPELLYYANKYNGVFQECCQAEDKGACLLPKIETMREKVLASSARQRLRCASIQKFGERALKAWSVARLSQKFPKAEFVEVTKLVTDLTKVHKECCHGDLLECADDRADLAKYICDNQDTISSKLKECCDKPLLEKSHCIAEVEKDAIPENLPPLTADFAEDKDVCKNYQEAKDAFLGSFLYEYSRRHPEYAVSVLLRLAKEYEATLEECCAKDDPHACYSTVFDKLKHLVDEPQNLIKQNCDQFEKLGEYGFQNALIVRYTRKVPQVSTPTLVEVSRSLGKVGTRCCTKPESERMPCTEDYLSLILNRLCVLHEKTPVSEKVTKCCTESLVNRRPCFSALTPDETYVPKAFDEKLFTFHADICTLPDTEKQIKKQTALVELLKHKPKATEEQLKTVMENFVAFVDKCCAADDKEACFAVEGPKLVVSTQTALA

For the compound `CC1=C(/C=C/C(C)=C/C=C/C(C)=C/C(=O)O)C(C)(C)CCC1` [atRA], the Kd was 4170 nM in assay [1] and 12.8 nM in assay [2].

For `CC(C)N1CCC(C)(C)c2cc(C#Cc3ccc(C(=O)O)cc3)ccc21` [floRA], the results for the Kd in assay [3], in assay [1] and in assay [2] were 1270 nM, 4760 nM and 14.9 nM, respectively.

(Values after paper PMC12212452, “Studies of All-trans Retinoic Acid Transport in the Eye” (Investigative Ophthalmology & Visual Science, 2025).)
